Measurements from patent US8987285B2, “Pharmaceutical compositions, dosage forms and new forms of the compound of formula (I), and methods of use thereof” (Portola Pharmaceuticals, Inc., priority 2010, dated 2015).

Columns and labels:
[1] = cited from earlier work
[2] = Saturation solubility, shake-flask with UV quantification; type: physicochemical; conditions: for final pH measured of the supernatant / Saturation solubility: listed as The compound of formula (I), form A
Method: The FaSSIF and FeSSIF solutions were prepared using Phares SIF powder according to the formulation instructions and the SGF solution was prepared using the guidelines provided. […] The pH and temperature of the supernatant were measured on a SiriusT3 instrument.

[3] = Wettability: contact angle measurement with water on pressed powder; type: physicochemical; conditions: for Contact angle: water, listed as A, in ° (unit assumed)
Method: Contact angel instrument: EasyDrop DSA15E (Krüss, Hamburg, Germany)
Syringe: NE44, diameter of needle 0.5 mm (Krüss, Hamburg, Germany)
The powder was pressed (approx 50 mg powder, 3 tons, 2 min) in tablets and analyzed by contact angle measurement. The angel between the solid and the liquid is measured after 0 and up to 60 seconds using water.
All determinations used the above method and the limit for the standards measurements are well within the given limits.

[4] = Super-saturation measurement (CheqSol): intrinsic and kinetic solubility; type: physicochemical
Source text: Anal. Chem. 2005, 77(4), 983-990; 2—Box, K J. Völgyi, G. Baka, E. Stuart, M. Takács-Novák, K. Corner, J E A. Equilibrium vs. kinetic measurements of aqueous solubility, and the ability of compounds to supersaturate in solution—a validation study. J. Pharm. Sci. 2006, 95, 1298-1307; 3—Sköld, C. Winiwarter, S. Johan Wernevik, J. Bergström, F. Engström, L. Allen, R. Box, K. Corner, J. Mole, J. Hallberg, A. Lennernäs, H. Lundstedt, T. Ungell, A-L. Karlén, A. Presentation of a Structurally Diverse and Commercially Available Drug Data Set for Correlation and Benchmarking Studies. J. Med. Chem. 2006, 49(23), 6660-6671;
. Med. Chem.; 2007, 50 (5), 979-983; 5—Llinás, A. Box, K J. Burley, J C. Glen, R C. Goodman, J M. J. A new method for the reproducible generation of polymorphs: two forms of Sulindac with very different solubilities. […] 6—Box K et al, Using Measured pKa, Log P and Solubility to Investigate Supersaturation and Predict BCS Class, Current Drug Metabolism, 2008, 9, 869-878]
1—kinetic solubility is the concentration of a compound in solution at the time when an induced precipitate first appears
2—equilibrium solubility (also called thermodynamic solubility) is the concentration of compound in a saturated solution when excess solid is present, and solution and solid are at equilibrium
3—intrinsic solubility [Hörter, D.; Dressman, J. B. Adv. Drug Deliv. Rev., 1997, 25, 3-14] is the equilibrium solubility of the free acid or base form of an ionisable compound at a pH where it is fully un-ionized
The super-saturation ratio is calculated as the ratio of kinetic solubility divided by the Intrinsic Solubility.

[5] = Solubility-excipient screening (Sirius CheqSol, 0.15 M aqueous KCl); type: physicochemical; conditions: drug:excipient 1:1 by weight, Form A titrated from pH 12 with 0.5 M HCl
Method: In all experiments, the compound of formula (II) and excipient were present at a 1:1 weight ratio. For each excipient, Form A of the potassium salt was titrated at an initial concentration of ˜1 mg/ml from pH 12 to low pH with 0.5 M HCl. A UV-turbidity probe was used to detect the presence of sample precipitate and all experiments were carried out according to standard CheqSol procedure.

SMILES	Aqueous Solubility [1]	final pH measured of the supernatant ([2]; FaSSIF pH 6.5-1w)	Saturation solubility ([2]; FeSSIF pH 5.0-1w, mean N = 2) [µg/mL]	final pH measured of the supernatant ([2]; FeSSIF pH 5.0-1w)	Saturation solubility ([2]; Na Phosphate pH 6.8, mean N = 2) [µg/mL]	final pH measured of the supernatant ([2]; Na Phosphate pH 6.8)	Saturation solubility ([2]; Na-Acetate pH 4.5, mean N = 2) [µg/mL]	final pH measured of the supernatant ([2]; Na-Acetate pH 4.5)	Saturation solubility ([2]; SGF pH 2.1, mean N = 2) [µg/mL]	final pH measured of the supernatant ([2]; SGF pH 2.1)	solubility at 72 h ([2]; pH 6.5, fassif, thermodynamic from solid, FaSSIF pH 6.5-1w, mean N = 2) [µg/mL]	surface hydrophobilicity from contact angle ([3]; critical angle around 50° (>50° hydrophob <50° hydrophil), listed as polymorph A)	Contact angle ([3]; 0 sec)	Contact angle ([3]; 30 sec)	Contact angle ([3]; 60 sec)	solubility kinetic ([4]; kinetic from dmso stock, CheqSol) [µg/mL]	ratio super saturation ([4]; kinetic solubility divided by intrinsic solubility, listed as K-salt-Form A)	solubility ([4]; thermodynamic from solid, CheqSol) [µg/mL]	pH first precipitation occurs [5]	Kinetic solubility ([5]; ~1 mg/ml) [µM]
NCCCC[C@H](N)C(=O)O [Lysine]	free soluble																			
CNc1cc2[nH]c(=O)n(-c3ccc(NC(=O)[N-]S(=O)(=O)c4ccc(Cl)s4)cc3)c(=O)c2cc1F.[K+] [Form A]		6.93	2.76	5.15	20.25	6.94	0.48	4.81	2.24	4.74	107	hydrophob	78.8	53.3	51.0	6.57	412	0.0159	5.3	12.57
